According to patent US10100079B2, “Progesterone-cationic lipid hybrid as anticancer agent and the process of synthesis thereof” (Council of Scientific & Industrial Research, priority 2016, dated 2018):
Where two headings read alike, the source gives them in different places.

How the values were obtained:
[1] = tested on: T47D; assay: MTT cytotoxicity assay, T47D; type: cell-based; conditions: Homo sapiens, read-out: IC50 T47D
Protocol: (§1) All cells were grown into mycoplasma free condition. […] All cells were grown up to 75-85% confluency after which cells were trypsinized, counted and seeded, in 96-well plates for cell viability studies, 6-well plates for apoptosis studies, 60 mm dish for cell cycle studies and in 25 cm^2 or 75 cm^2 tissue culture flasks for Western blot studies. The primary stock of the cationic progesterone molecules were made in cell culture grade DMSO and from that secondary stock was prepared by serial dilution with cell culture grade DMSO. The final working concentrations were prepared by diluting the secondary stock in cell culture media keeping the DMSO concentration in working solution below 0.2% with respect to cell culture medium. […] For this assay, 12-18 h before treatment cells were plated in 96-well plate at 5000 cells/well density. […] After completion of the treatment, 10 μL of MTT solution (5 mg/mL) was added in each well and incubated for 4 h. Then the media was removed carefully, and the reduced MTT was dissolved in 1:1 (v/v) DMSO/Methanol and absorbance was measured using multimode reader (Synergy H1, BioTek). Results were represented as percentage of viability={[A550(treated cells)−background]/[A550(untreated cells)−background]}×100. The result was summarized and provided as IC50 table in Table 1.

[2] = tested on: MCF7; assay: MTT cytotoxicity assay, MCF7; type: cell-based; conditions: Homo sapiens, read-out: IC50 MCF7
Protocol: as §1

[3] = tested on: MDA-MB-231; assay: MTT cytotoxicity assay, MDA-MB-231; type: cell-based, human
Protocol: as §1

[4] = tested on: NIH-3T3; assay: MTT cytotoxicity assay, NIH-3T3; type: cell-based, murine; conditions: Mus musculus, read-out: IC50 NIH-3T3
Protocol: as §1

[5] = tested on: CHO; assay: MTT cytotoxicity assay, CHO; type: cell-based, Chinese hamster; conditions: Cricetulus griseus, read-out: IC50 CHO
Protocol: as §1

[6] = tested on: non-cancer cells CHO, COS-1 and NIH-3T3; assay: MTT viability, tested non-cancer cells (combination treatment study, FIG. 1B); type: cell-based; conditions: 48 h; for toxicity in non-cancer cells: 10 μM (1+10C: 10 μM+10 μM)
Protocol: FIG. 1B: The viability studies of non-cancer cells CHO, COS-1 and NIIH-3T3 after 48 h of continuous treatment with compound 1 (10 μM), 10C [cationic lipid control molecule not containing progesterone moiety]
Cytotoxicity assay of the different compounds were carried out by using 3-(4,5-dimethylthiazol-2-yl)-2,5-diphenyltetrazolium bromide (MTT). For this assay, 12-18 h before treatment cells were plated in 96-well plate at 5000 cells/well density. After incubation cells were treated continuously for 48 h with respective compounds at different concentration (2.5 μM-40 μM). After completion of the treatment, 10 μL of MTT solution (5 mg/mL) was added in each well and incubated for 4 h. Then the media was removed carefully, and the reduced MTT was dissolved in 1:1 (v/v) DMSO/Methanol and absorbance was measured using multimode reader (Synergy H1, BioTek). Results were represented as percentage of viability={[A550(treated cells)−background]/[A550(untreated cells)−background]}×100. The result was summarized and provided as IC50 table in Table 1.
For combination treatment effect, cells were plated in 96 well plates at 5000 cells/well. […] Following 48 h of treatment cell viability was measured following above mentioned MTT study.

[7] = tested on: T47D (PgR-positive); assay: Cell cycle assay by flow cytometry (PI), T47D; type: cell-based, human; conditions: 10 μM, 24 h
Protocol: (§2) To measure the cellular DNA content, cell cycle assay was carried out. In this assay, first cells were synchronized at early S-phase by double thymidine blocking. When cell confluency was reached around 25-30% in 60 mm dish, cells were treated with 2 mM thymidine, diluted in 10% FBS containing DMEM, for 18 h to block cells at early S-phase. To release the blocking, media was discarded and washed with 1×PBS. Then the cells were incubated with fresh cell culture media containing 10% FBS for 9 h. After releasing, second blocking was done with 2 mM thymidine containing media for 17 h. After second blocking cells were released by discarding the thymidine supplemented media and kept in fresh media. All the respective treatments for cell cycle study were done after 2 h of second release.
(§3) S-phase synchronized cells were either kept untreated or treated with compound 1 (10 μM) and 6c (10 μM) for 24 h. Cells from different treatment groups were harvested, washed with 1×PBS, and fixed with 70% ethanol and kept at −20° C. for overnight. Then the ethanol was removed and washed with 1×PBS. […] After incubation cells were collected by centrifugation, washed with 1×PBS, re-suspended in 500 μL 1×PBS, and data was recorded using flow cytometer (FACS Canto II, Becton-Dickinson, San Jose, Calif., USA) and data were analyzed with FACS Diva software. […]

[8] = tested on: B16F10 (PgR-negative); assay: Cell cycle assay by flow cytometry (PI), B16F10; type: cell-based, murine; conditions: B16F10, 10 μM, 24 h
Protocol: as §2, §3

[9] = tested on: B16F10; assay: Apoptosis by flow cytometry (annexin V-FITC/PI), B16F10; type: cell-based, murine; conditions: B16F10, 10 μM, 36 h
Protocol: Apoptosis study was performed by flow cytometry using annexin V-FITC-labeled apoptosis detection kit (Sigma) following manufacturer's protocol. Cells (□×□□^□ cells/well) were seeded in six-well plates and incubate for 16-18 h. After 16-18 h, cells were either kept untreated or treated with 10 μM compound 1 and 10 μM 6c for 36 h. Next, cells were trypsinized and washed with PBS. Then the cells were re-suspended in 1× binding buffer at a density of 1×10^6 cells/ml and stained simultaneously with FITC-labeled annexin V (25 ng/ml) and propidium iodide (50 ng/ml). After 15 min incubation, cells were analyzed using a flow cytometer (FACS Canto II, Becton-Dickinson, San Jose, Calif., USA), and data were analyzed with FCS Express V3 software. Minimum of 10000 events were gated per sample.

SMILES | IC50 ([1]; MTT, 48 h continuous treatment) [µM] | IC50 ([2]; MCF7, MTT, 48 h continuous treatment) [µM] | IC50 ([3]; Homo sapiens, MDA-MB-231, MTT, 48 h continuous treatment, read-out: IC50 MDA-MB-231) [µM] | IC50 ([4]; NIH3T3, MTT, 48 h continuous treatment, non-cancer cell) [µM] | IC50 ([5]; MTT, 48 h continuous treatment, non-cancer cell) [µM] | toxicity in non-cancer cells [6] | total cell population in G2/M phase [7] [%] | total cell population in G2/M phase [8] [%] | IC50 ([1]; 48 h) [µM] | IC50 ([2]; MCF7, 48 h) [µM] | IC50 ([3]; Homo sapiens, MDA-MB-231, 48 h, read-out: IC50 MDA-MB-231, MTT, 48 h continuous treatment) [µM] | IC50 ([3]; read-out: IC50 MDA-MB-231, MTT, 48 h continuous treatment) [µM] | IC50 ([4]; NIH3T3, 48 h) [µM] | IC50 ([5]; 48 h) [µM] | toxicity towards tested non-cancer cells ([6]; 2.5 μM-40 μM) | apoptotic cell [9] [%]
CC(=O)[C@H]1CC[C@H]2[C@@H]3CCC4=CC(=O)CC[C@]4(C)[C@H]3CC[C@]12C [Compound 1, Progesterone] | > 20 | > 20 | > 20 | > 20 | > 20 | did not impart any significant toxicity | 10 | 19 | – | – | – | – | – | – | – | –
CCCCCCCCCC[N+](C)(CCCCCCCCCC)CCNC(=O)CCC(=O)O[C@@H](C)[C@H]1CCC2C3CCC4=CC(=O)CC[C@]4(C)C3CC[C@@]21C (stereo partly drawn) [Compound 6c, N-decyl-N-(2-(4-((1S)-1-((10R,13S,17S)-10,13-dimethyl-3-oxo-2,3,6,7,8,9,10,11,12,13,14, 15,16,17-tetradecahydro-1H-cyclopenta[a]phenanthren-17-yl)ethoxy)-4-oxobutanamido)ethyl)-N-methyldecan-1-aminium chloride] | – | – | – | – | – | not in non-cancerous cell | 38 | 33 | 4.32 ± 0.57 | 7.33 ± 0.19 | 6.67 ± 0.27 | 3.63 ± 0.16 | > 20 | 17.3 ± 0.29 | largely non-toxic | 53.22
